The text below walks through data of US8492417B2, “Topical use of thiazolidine derivatives against consequences of oxidative stress of skin” (Exsymol S.A.M., priority 2007, dated 2013).

The test system of data set [1] is V79 fibroblastic line. The experiment in a line: Neutralization of 4-hydroxynonenal cytotoxicity, MTT cellular viability. In kind it is cell-based, hamster. The conditions noted are these: 4-HNE 6 ppm. As to the method: The experimental study has been carried out on a fibroblastic line of hamster called V79, maintained in humid atmosphere at 37° C. and 5% CO2, then seeded in 96 wells plates at the rate of 0.5.10^4 cells per well.
The cellular viability of fibroblasts is measured by the incorporation method to the bromide of 3-(4,5-dimethylthiazol-2-yl)-2,5-diphenyltetrazolium (or MTT). The results, taking the middle values obtained from three independent experiments, are presented below in table 3, in comparison with those for the N-acetyl-cysteine at 2 mM chosen as a positive reference molecule (total restoration of cellular viability in relation to a control and the non stressed cells with 4-HNE).

Data set [2] relates to V79 fibroblastic line. As to the kind of experiment: Anti-clastogen effect: micronucleus cells under genotoxic 4-HNE stress. The class given is cell-based, hamster. The conditions noted are these: stress-HNE 1 ppm. From the text: The study has been carried out according to identical experimental conditions (sowing) to those presented in the here-above test 3, with cell exposure to a state of “4-HNE stress ” at […] genotoxic concentration, as described (Eckel P. M., Molecular Aspects of Medicine (2003), vol. 24, pp. 161-165) as generating cellular DNA breaks and micronucleus formation (clastogen effect).
The micronucleus cell number is counted following reading of the slides with epifluorescence microscope, on 2000 cells and after marking with orange acridine (DNA colorant).
Results, taking the middle values obtained from two independent experiments, are presented below in table 4, in comparison with those for N-acetyl-cysteine at 2 mM chosen as a positive reference molecule (number of micronucleus cells close to the non-exposed control).

Data set [3] deals with V79 cells. As to the kind of experiment: Protection against "UVA-induced" stress: intracellular ROS by CMDCF probe. The class given is cell-based, hamster. The conditions noted are these: irradiated cells, UVA 5 J. cm−2. As to the method: The study has been carried out according to identical experimental conditions (sowing) to those presented in the here-above tests 3 and 4, but with an exposure of V79 cells to ultraviolet radiation (λ315-400 nm) with the moderate dose of 5 J. cm^−2 (“UVA-induced” stress).
The formation of intracellular ROS is measured with the permeant fluorescent probe “CMDCF” derived from fluorescein (10 μm, 15 minutes incubation).
The percentages of CMDCF cells said “positive” (cells with intracellular formation of ROS are presented below in table 6, in comparison with unirradiated cells, then with cells treated with N-acetyl-cysteine (reference molecule) and different concentrations of 2-oxo-1,3-thiazolidine compound.

A short description of data set [4]: "in tubo" taurine formation in contact with H2O2 solution (HPLC). The class given is physicochemical. The conditions noted are these: 4 equivalents H2O2, pH 7.4, 37° C.
Data set [5] in a line: Scavenging speed constant of the hydroxyl radical, Ks (OH°). Also on record: unit not given here. The conditions noted are these: pH 7,4, 37° C., one hour incubation; middle values of five experiments. As to the method:
The method, described by Rehman A. and coll.
Experimentally, the tested substance is dissolved in a buffered medium of pH 7,4 to which is added a generating medium of OH^o. Following one hour of incubation at 37° C., the reaction is stopped with the help of trichloroacetic acid. […]

Data set [6] can be described thus: "Global" antioxidant power: desoxyribose protection with oxidase/hypoxanthine xanthine pair. The conditions noted are these: pH 7.5. As to the method:
The production system of ROS, described by Nowak D. and coll. […] This is characterized by the sum of the effects against the superoxide anion O2^o−, hydrogen peroxide H2O2, and the hydroxyl radical OH^o, and is expressed by following the percentage of protection of a “detecting” molecule, desoxyribose.
Experimentally, the tested substance is dissolved in a buffered medium at pH 7.5, supplemented with NaCl, MgCl2 et CaCl2. After their incubation at 37° C. in the presence of the oxidase/hypoxanthine xanthine pair, EDTA and desoxyribose, the reaction is stopped with the help of trichloroacetic acid. After addition of thiobarbituric acid, an optic density measure at 532 nm is carried out, expressed later as percentage of desoxyribose protection (following comparison with a control).

Data set [7] is described as follows: physchem.
For data set [8] the following is noted: literature value (Cabelli 1983); cited from earlier work.

Read-outs that look alike come from different tables or passages of the source.

A word on the viability: it is a read-out of living cells in per cent, often relative to untreated cells. As to `CC(=O)N[C@@H](CS)C(=O)O` [N-acetyl-cysteine, reference compound], in data set [1] (compound 2 mM), the viability at 2000 µM is 126%. In addition, in data set [2] (compound 2 mM), the “Cell number with micronucleus/2000 cells” value is recorded as 27. Also, the “% of CMDCF positive cells” value in data set [3] (compound 5 mM) is 4%.

Regarding `S=C1NCCS1` [2-thiono-1,3-thiazolidine], the “taurine (% formation)” value in data set [4] (3 h) is 30%; in data set [4] (7 h) it was 50%; in data set [4] (24 h), 77%; in data set [4] (48 h) it was 89%.

The logP is a log measure of how a compound divides between an organic and an aqueous phase. Take `O=C1NCCS1` [2-oxo-1,3-thiazolidine]: the “Ks (OH°)” value in data set [5] came to 13.52. The “% protection” value in data set [6] (compound 10 mM) came to 19%; in data set [6] (compound 20 mM), 25%. Also, in data set [1] (compound 0.1 mM), the viability at 100 µM is 40%. Also, the viability at 1000 µM in data set [1] (compound 1 mM) was 58%. In data set [1] (compound 2.5 mM), the viability at 2500 µM amounted to 100%. The “Cell number with micronucleus/2000 cells” value in data set [2] (compound 5 mM) was 21. Further, the “taurine (% formation)” value in data set [4] (3 h) worked out at 38%; in data set [4] (7 h), 56%; in data set [4] (24 h), 82%; in data set [4] (48 h), 93%. The “% of CMDCF positive cells” value is reported as 24.7% in data set [3] (compound 0.625 mM), 15.3% in data set [3] (compound 1.25 mM), 12% in data set [3] (compound 2.5 mM) and 7.3% in data set [3] (compound 5 mM). This compound came in with a logP in data set [7] of -0.27.

As to `O=C1O[C@H]([C@@H](O)CO)C(O)=C1O` [ascorbic acid], the “Ks (OH°)” value in data set [8] is reported as 10.1 Gigas.M-1.s-1.
